In US10875876B2, “Cyclized sulfamoylarylamide derivatives and the use thereof as medicaments for the treatment of hepatitis B” (priority 2015, dated 2020):
pEC50: −log10 of the molar value.

Legend:
HBV = test: anti HBV activity, HepG2.117 cell line, intracellular HBV DNA by realtime PCR; format: cell-based; conditions: Hepatitis B virus, HepG2.117, 72 h, HepG2.117 cell line (Tet-off), 3 days of treatment, intracellular HBV DNA quantified by realtime PCR; read-out: HBV-AVE-HepG2.117 EC50
Procedure, shortened: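 HepG2.117 cells, a Tet-off line that replicates HBV without doxycycline, were induced and then treated in duplicate with serially diluted compound. After 3 days, intracellular HBV DNA was quantified by real-time PCR with an HBV-specific primer set and probe.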

[1] = Cytotoxicity in HepG2 cells, Resazurin assay; conditions: human, HepG2 cells, TOX-HepG2-4 d CC50 (μM), HepG2 cells incubated for 4 days, viability by Resazurin assay

| Compound | pEC50 (HBV) | melting point | CC50 at 4 days [1] |
| --- | --- | --- | --- |
| Cn1cc2c(c1C(=O)Nc1ccc(F)c(C#N)c1)OC[C@@H](C(C)(C)O)NS2(=O)=O [Compound 107, (3S)—N-(3-cyano-4-fluoro-phenyl)-3-(1-hydroxy-1-methyl-ethyl)-7-methyl-1,1-dioxo-3,4-dihydro-2H-pyrrolo[3,4-b][1,4,5]oxathiazepine-6-carboxamide] | 7.10 | 259.8 °C | > 25 µM |
| Cc1cc(NC(=O)c2c3c(cn2C)S(=O)(=O)N[C@@H]([C@H](C)O)CC3)ccc1F [Compound 112, (3R)—N-(4-fluoro-3-methyl-phenyl)-3-[(1S)-1-hydroxyethyl]-7-methyl-1,1-dioxo-2,3,4,5-tetrahydropyrrolo[3,4-f]thiazepine-6-carboxamide] | 8.52 | 287.3 °C | > 25 µM |
| Cn1cc2c(c1C(=O)Nc1ccc(F)c(F)c1)CC[C@@H](C(C)(C)O)NS2(=O)=O [Compound 113, (3S)—N-(3,4-difluorophenyl)-3-(1-hydroxy-1-methyl-ethyl)-7-methyl-1,1-dioxo-2,3,4,5-tetrahydropyrrolo[3,4-f]thiazepine-6-carboxamide] | 6.92 | 217.7 °C | > 25 µM |
| Cn1cc2c(c1C(=O)Nc1ccc(F)c(F)c1)OC[C@@H](C(C)(C)F)NS2(=O)=O [Compound 121, (3S)—N-(3,4-difluorophenyl)-3-(1-fluoro-1-methyl-ethyl)-7-methyl-1,1-dioxo-3,4-dihydro-2H-pyrrolo[3,4-b][1,4,5]oxathiazepine-6-carboxamide] | 7.54 | 239.8 °C | > 25 µM |
| Cn1cc2c(c1C(=O)Nc1ccc(F)c(F)c1)OCC(C)(c1ccccc1)NS2(=O)=O (stereo not drawn) [Compound 125, N-(3,4-difluorophenyl)-3,7-dimethyl-1,1-dioxo-3-phenyl-2,4-dihydropyrrolo[3,4-b][1,4,5]oxathiazepine-6-carboxamide] | 8.15 | 256.6 °C | > 25 µM |
| Cn1cc2c(c1C(=O)Nc1ccc(F)c(F)c1)OC[C@@](C)(c1ccccn1)NS2(=O)=O [Compound 126, (3R)—N-(3,4-difluorophenyl)-3,7-dimethyl-1,1-dioxo-3-(2-pyridyl)-2,4-dihydropyrrolo[3,4-b][1,4,5]oxathiazepine-6-carboxamide] | 7.21 | 270.5 °C | > 25 µM |
| Cn1cc2c(c1C(=O)Nc1ccc(F)c(F)c1)OC[C@](C)(c1ccccn1)NS2(=O)=O [Compound 127, (3S)—N-(3,4-difluorophenyl)-3,7-dimethyl-1,1-dioxo-3-(2-pyridyl)-2,4-dihydropyrrolo[3,4-b][1,4,5]oxathiazepine-6-carboxamide] | 7.89 | 270.8 °C | > 25 µM |
| Cn1cc2c(c1C(=O)Nc1ccc(F)c(C#N)c1)OC[C@](C)(c1ccccn1)NS2(=O)=O [Compound 128, (3S)—N-(3-cyano-4-fluoro-phenyl)-3,7-dimethyl-1,1-dioxo-3-(2-pyridyl)-2,4-dihydropyrrolo[3,4-b][1,4,5]oxathiazepine-6-carboxamide] | 7.62 | 235 °C | > 25 µM |
| Cn1cc2c(c1C(=O)Nc1ccnc(Cl)c1)OC[C@H](C(C)(C)O)NS2(=O)=O [Compound 146, (3R)—N-(2-chloro-4-pyridyl)-3-(1-hydroxy-1-methyl-ethyl)-7-methyl-1,1-dioxo-3,4-dihydro-2H-pyrrolo[3,4-b][1,4,5]oxathiazepine-6-carboxamide] | 7.26 | 246.6 °C | > 25 µM |
| C[C@H]1CCc2c(cn(C)c2C(=O)Nc2ccc(F)c(C#N)c2F)S(=O)(=O)N1 [Compound 157, (3S)—N-(3-cyano-2,4-difluoro-phenyl)-3,7-dimethyl-1,1-dioxo-2,3,4,5-tetrahydropyrrolo[3,4-f]thiazepine-6-carboxamide] | 7.77 | 247.5 °C | > 25 µM |
| Cn1cc2c(c1C(=O)Nc1ccnc(C(F)F)c1)OCC(C)(C)NS2(=O)=O [Compound 158, N-[2-(difluoromethyl)-4-pyridyl]-3,3,7-trimethyl-1,1-dioxo-2,4-dihydropyrrolo[3,4-b][1,4,5]oxathiazepine-6-carboxamide] | 7.51 | 229.9 °C | > 25 µM |
| C[C@H]1CCc2c(cn(C)c2C(=O)Nc2ccc(F)c(C(F)F)c2F)S(=O)(=O)N1 [Compound 164, (3S)—N-[3-(difluoromethyl)-2,4-difluoro-phenyl]-3,7-dimethyl-1,1-dioxo-2,3,4,5-tetrahydropyrrolo[3,4-f]thiazepine-6-carboxamide] | 7.92 | 227.7 °C | > 25 µM |
| Cn1cc2c(c1C(=O)Nc1ccc(F)c(C(F)F)c1)OC[C@](C)(c1ccccn1)NS2(=O)=O [Compound 169, (3S)—N-[3-(difluoromethyl)-4-fluoro-phenyl]-3,7-dimethyl-1,1-dioxo-3-(2-pyridyl)-2,4-dihydropyrrolo[3,4-b][1,4,5]oxathiazepine-6-carboxamide] | 7.77 | 208.8 °C | > 25 µM |
| Cn1cc2c(c1C(=O)Nc1ccc(F)c(F)c1)OCC(C)(Cc1ccc(Br)nc1)NS2(=O)=O (stereo not drawn) [Compound 171, 3-[(6-bromo-3-pyridyl)methyl]-N-(3,4-difluorophenyl)-3,7-dimethyl-1,1-dioxo-2,4-dihydropyrrolo[3,4-b][1,4,5]oxathiazepine-6-carboxamide] | 8.10 | 259.2 °C | > 25 µM |
| Cn1ccnc1CC1(C)COc2c(cn(C)c2C(=O)Nc2ccc(F)c(F)c2)S(=O)(=O)N1 (stereo not drawn) [Compound 173, N-(3,4-difluorophenyl)-3,7-dimethyl-3-[(1-methylimidazol-2-yl)methyl]-1,1-dioxo-2,4-dihydropyrrolo[3,4-b][1,4,5]oxathiazepine-6-carboxamide] | 7.77 | 297.1 °C | > 25 µM |
| Cn1cncc1CC1(C)COc2c(cn(C)c2C(=O)Nc2ccc(F)c(F)c2)S(=O)(=O)N1 (stereo not drawn) [Compound 174, N-(3,4-difluorophenyl)-3,7-dimethyl-3-[(3-methylimidazol-4-yl)methyl]-1,1-dioxo-2,4-dihydropyrrolo[3,4-b][1,4,5]oxathiazepine-6-carboxamide] | 8.15 | 265.5 °C | > 25 µM |
| Cn1cc2c(c1C(=O)Nc1ccc(F)c(Br)c1F)CCC(C(C)(C)O)NS2(=O)=O (stereo not drawn) [Compound 179, N-(3-bromo-2,4-difluoro-phenyl)-3-(1-hydroxy-1-methyl-ethyl)-7-methyl-1,1-dioxo-2,3,4,5-tetrahydropyrrolo[3,4-f]thiazepine-6-carboxamide] | 7.68 | 236.8 °C | > 25 µM |
| Cn1cc2c(c1C(=O)Nc1ccc(F)c(Cl)c1)OC[C@H](C(C)(C)O)NS2(=O)=O [Compound 180, (3R)—N-(3-chloro-4-fluoro-phenyl)-3-(1-hydroxy-1-methyl-ethyl)-7-methyl-1,1-dioxo-3,4-dihydro-2H-pyrrolo[3,4-b][1,4,5]oxathiazepine-6-carboxamide] | 8.30 | 234.1 °C | > 25 µM |
| Cn1cc2c(c1C(=O)Nc1ccc(F)c(C(F)F)c1F)OC[C@H](C(C)(C)O)NS2(=O)=O [Compound 182, (3R)—N-[3-(difluoromethyl)-2,4-difluoro-phenyl]-3-(1-hydroxy-1-methyl-ethyl)-7-methyl-1,1-dioxo-3,4-dihydro-2H-pyrrolo[3,4-b][1,4,5]oxathiazepine-6-carboxamide] | 8.00 | 182.1 °C | > 25 µM |
| Cn1ccnc1CC1(C)COc2c(cn(C)c2C(=O)Nc2ccc(F)c(C(F)F)c2)S(=O)(=O)N1 (stereo not drawn) [Compound 187, N-[3-(difluoromethyl)-4-fluoro-phenyl]-3,7-dimethyl-3-[(1-methylimidazol-2-yl)methyl]-1,1-dioxo-2,4-dihydropyrrolo[3,4-b][1,4,5]oxathiazepine-6-carboxamide] | 8.52 | 282.8 °C | > 25 µM |
| C[C@H](O)[C@H]1CCc2c(cn(C)c2C(=O)Nc2ccc(F)c(C(F)F)c2F)S(=O)(=O)N1 [Compound 188, (3R)—N-[3-(difluoromethyl)-2,4-difluoro-phenyl]-3-[(1S)-1-hydroxyethyl]-7-methyl-1,1-dioxo-2,3,4,5-tetrahydropyrrolo[3,4-f]thiazepine-6-carboxamide] | 7.96 | 277.1 °C | > 25 µM |
| Cn1cc2c(c1C(=O)Nc1ccc(F)c(F)c1)OCC(C)(Cc1ccnc(Cl)c1)NS2(=O)=O (stereo not drawn) [Compound 190, 3-[(2-chloro-4-pyridyl)methyl]-N-(3,4-difluorophenyl)-3,7-dimethyl-1,1-dioxo-2,4-dihydropyrrolo[3,4-b][1,4,5]oxathiazepine-6-carboxamide] | 8.22 | 225 °C | > 25 µM |
| Cn1cc2c(c1C(=O)Nc1ccc(F)c(F)c1)OCC(C)(Cc1ccncc1)NS2(=O)=O (stereo not drawn) [Compound 191, N-(3,4-difluorophenyl)-3,7-dimethyl-1,1-dioxo-3-(4-pyridylmethyl)-2,4-dihydropyrrolo[3,4-b][1,4,5]oxathiazepine-6-carboxamide] | 8.00 | 276 °C | > 25 µM |
| C[C@H](O)[C@H]1CCc2c(cn(C)c2C(=O)Nc2ccc(F)c(Cl)c2)S(=O)(=O)N1 [Compound 193, (3R)—N-(3-chloro-4-fluoro-phenyl)-3-[(1S)-1-hydroxyethyl]-7-methyl-1,1-dioxo-2,3,4,5-tetrahydropyrrolo[3,4-f]thiazepine-6-carboxamide] | 8.22 | 290.8 °C | > 25 µM |
